Data as given in US20040224917A1, “Compositions and methods for combination antiviral therapy” (GILEAD SCIENCES, INC., priority 2003, published 2004).
Structures can show the parent of a compound that is named as a salt.

How the values were obtained:
HIV-1 = details: in combination with recombinant soluble CD4 castanospermine and recombinant interferon-α; cited from earlier work
HIV replication = details: in combination with PMPA, d4T, ddC, nelfinavir, ritonavir, saquinavir; cited from earlier work
[1] = in tablets, six months at 40° C./75% RH, packaged and stored with desiccant
[2] = each dose regimen greater or equal to 200 mg, two weeks, monotherapy

Nc1nc(=O)n([C@@H]2CS[C@H](CO)O2)cc1F (single isomer, unassigned) [Emtricitabine]
viral suppression (HIV; [2]): ≥ 98%
viral suppression (log 10) (HIV; [2]): ≥ 1.75 log 10
reduction of viral load, average (HIV; once-a-day dose of 200 mg): 99%
reduction of viral load, average (log 10) (HIV; once-a-day dose of 200 mg): 1.92 log 10

Cc1cn([C@H]2C[C@H](N=[N+]=[N-])[C@@H](CO)O2)c(=O)[nH]c1=O [AZT, 3′-azido, 3′-deoxythymidine]
synergy of antiviral activity in vitro (HIV-1): synergistic antiviral activity

CC(C)(C)C(=O)OCOP(=O)(COCCn1cnc2c(N)ncnc21)OCOC(=O)C(C)(C)C [Adefovir dipivoxil]
synergy of inhibition of HIV replication (HIV replication): minor to moderate synergistic inhibition

CC(C)OC(=O)OCOP(=O)(CO[C@H](C)Cn1cnc2c(N)ncnc21)OCOC(=O)OC(C)C [Tenofovir disoproxil fumarate, 9-[(R)-2-[[bis[[(isopropoxycarbonyl)oxy]methoxy]phosphinyl]methoxy]propyl]adenine fumarate (1:1)]
loss in % label strength (significant defined as ≧5% degradation) [1]: No significant loss
